Experimental data published in ChEMBL document CHEMBL6078724, “Discovery of the first examples of right open reading frame kinase 2 (RIOK2) molecular glue degraders” (Eur J Med Chem, 2025).
pIC50, pKd: −log10 of the molar value. Calls of active or inactive are those of the source. No cut-off for these calls is given here.

Legend:
[1] = target: T1, E3 ubiquitin-protein ligase RNF126/Serine/threonine-protein kinase RIO2 (Homo sapiens, UniProt Q9BVS4+Q9BV68); test: Molecular glue degradation activity at RNF126/RIOK2 in human MOLT-4 cells assessed as induction protein degradation incubated for 12 hrs by immunoblot analysis; type: cell-based
Target sequence in this assay (Q9BVS4 whole entry): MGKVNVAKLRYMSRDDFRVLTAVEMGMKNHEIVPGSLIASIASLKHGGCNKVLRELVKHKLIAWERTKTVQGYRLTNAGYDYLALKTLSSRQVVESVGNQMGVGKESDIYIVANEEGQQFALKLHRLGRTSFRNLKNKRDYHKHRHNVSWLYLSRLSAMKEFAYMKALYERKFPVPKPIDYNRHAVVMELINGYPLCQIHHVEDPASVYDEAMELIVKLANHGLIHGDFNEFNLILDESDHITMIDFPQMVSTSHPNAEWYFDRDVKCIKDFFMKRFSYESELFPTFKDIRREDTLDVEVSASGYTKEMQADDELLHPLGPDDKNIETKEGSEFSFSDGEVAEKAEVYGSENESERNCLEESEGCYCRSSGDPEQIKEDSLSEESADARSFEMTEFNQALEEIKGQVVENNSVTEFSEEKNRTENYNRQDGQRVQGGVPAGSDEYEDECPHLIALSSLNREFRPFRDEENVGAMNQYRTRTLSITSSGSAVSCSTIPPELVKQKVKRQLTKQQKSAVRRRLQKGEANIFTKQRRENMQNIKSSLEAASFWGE
Target sequence in this assay (Q9BV68 whole entry): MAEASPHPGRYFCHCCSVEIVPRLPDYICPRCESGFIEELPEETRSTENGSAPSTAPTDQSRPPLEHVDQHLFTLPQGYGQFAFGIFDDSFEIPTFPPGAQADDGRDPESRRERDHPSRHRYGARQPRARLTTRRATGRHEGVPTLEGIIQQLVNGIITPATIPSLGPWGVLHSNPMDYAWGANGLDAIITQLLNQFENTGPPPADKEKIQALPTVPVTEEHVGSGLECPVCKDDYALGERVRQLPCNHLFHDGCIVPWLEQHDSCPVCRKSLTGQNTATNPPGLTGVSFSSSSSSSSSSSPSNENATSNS

[2] = target: T1, E3 ubiquitin-protein ligase RNF126/Serine/threonine-protein kinase RIO2; test: Molecular glue degradation activity at RNF126/RIOK2 in human MOLT-4 cells assessed as induction protein degradation incubated for 12 hrs by immunoblot analysis relative to control; type: cell-based
Target sequence in this assay (Q9BV68 2-311 partner limits assumed): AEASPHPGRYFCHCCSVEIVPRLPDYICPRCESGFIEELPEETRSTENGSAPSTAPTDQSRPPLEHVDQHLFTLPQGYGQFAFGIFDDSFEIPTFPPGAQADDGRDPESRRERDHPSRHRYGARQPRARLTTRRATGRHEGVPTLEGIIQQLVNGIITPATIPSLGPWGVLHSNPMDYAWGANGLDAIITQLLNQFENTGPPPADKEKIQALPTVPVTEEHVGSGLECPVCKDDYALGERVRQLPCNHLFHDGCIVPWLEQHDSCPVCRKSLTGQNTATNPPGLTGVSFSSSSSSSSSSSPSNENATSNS
Target sequence in this assay (Q9BVS4 whole entry): as the sequence (Q9BVS4 whole entry) above

U-937 = test: Antiproliferative activity against human U-937 cells incubated for 72 hrs by CCK8 assay; type: functional, cell-based; settings: U-937, 72 h
MOLT-4 [3] = test: Antiproliferative activity against human MOLT-4 cells incubated for 72 hrs by CCK8 assay; type: functional, cell-based; settings: MOLT-4, 72 h
HL-60 = test: Antiproliferative activity against human HL-60 cells incubated for 72 hrs by CCK8 assay; type: functional, cell-based; settings: HL-60, 72 h
K562 = test: Antiproliferative activity against human K562 cells incubated for 72 hrs by CCK8 assay; type: functional, cell-based; settings: K562, 72 h
OCI-Ly3 = test: Antiproliferative activity against human OCILY3 cells incubated for 72 hrs by CCK8 assay; type: functional, cell-based; settings: OCI-Ly3, 72 h
ASPC1 = test: Antiproliferative activity against human ASPC1 cells incubated for 72 hrs by CCK8 assay; type: functional, cell-based; settings: ASPC1, 72 h
A549 = test: Antiproliferative activity against human A549 cells incubated for 72 hrs by CCK8 assay; type: functional, cell-based; settings: A549, 72 h
HeLa = test: Antiproliferative activity against human HeLa cells incubated for 72 hrs by CCK8 assay; type: functional, cell-based
[4] = Antiproliferative activity against HEK293 cells incubated for 72 hrs by CCK8 assay; type: toxicity, cell-based; settings: human
[5] = Antiproliferative activity against mouse NIH3T3 cells incubated for 72 hrs by CCK8 assay; type: toxicity, cell-based
[6] = Antiproliferative activity against human MRC5 cells incubated for 72 hrs by CCK8 assay; type: toxicity, cell-based
[7] = target: T1, E3 ubiquitin-protein ligase RNF126/Serine/threonine-protein kinase RIO2; test: Molecular glue degradation activity at RNF126/RIOK2 in human MOLT-4 cells assessed as decrease in mTOR level at 500 nM incubated for 12 hrs by immunoblot analysis; type: cell-based
Target sequence in this assay (Q9BV68 2-311 partner limits assumed): as the sequence (Q9BV68 2-311 partner limits assumed) above
Target sequence in this assay (Q9BVS4 whole entry): as the sequence (Q9BVS4 whole entry) above

[8] = target: T1, E3 ubiquitin-protein ligase RNF126/Serine/threonine-protein kinase RIO2; test: Molecular glue degradation activity at RNF126/RIOK2 in human MOLT-4 cells assessed as decrease in AKT level at 500 nM incubated for 12 hrs by immunoblot analysis; type: cell-based
Target sequence in this assay (Q9BV68 2-311 partner limits assumed): as the sequence (Q9BV68 2-311 partner limits assumed) above
Target sequence in this assay (Q9BVS4 whole entry): as the sequence (Q9BVS4 whole entry) above

MOLT-4 [9] = test: Induction of cell cycle arrest in human MOLT-4 cells assessed as accumulation at G2/M phase at 900 nM incubated for 24 hrs by PI staining based flow cytometry relative to control; type: functional
MOLT-4 [10] = test: Induction of apoptosis in human MOLT-4 cells at 900 nM incubated for 48 hrs by Annexin V-FITC/PI staining based flow cytometry relative to control; type: functional
[11] = target: Serine/threonine-protein kinase RIO2 (Homo sapiens, UniProt Q9BVS4); test: Binding affinity to RIOK2 (unknown origin) assessed as dissociation constant
Serine/threonine-protein kinase RIO2, sequence (Q9BVS4 whole entry): as above

SMILES | DC50 [1] [µM] | Emax [2] [%] | other results
C=CC(=O)N1CCN(c2ccc(-n3nnc4c(=O)[nH]c5ccc(-c6ccc(OC)nc6)cc5c43)cc2C(F)(F)F)CC1 | 4.31 | 81.4 | –
COc1ccc(-c2ccc3[nH]c(=O)c4nnn(-c5ccc(N6CCNCC6)c(C(F)(F)F)c5)c4c3c2)cn1 | – | – | pIC50 (U-937): 5.74; pIC50 (MOLT-4 [3]): 5.90; pIC50 (HL-60): 5.92; pIC50 (K562): 5.69; pIC50 (OCI-Ly3): 6.28; pIC50 (ASPC1): 5.61; pIC50 (A549): 5.59; pIC50 (HeLa): 5.91; IC50 at 72 h [4]: 1.94 µM; IC50 at 72 h [5]: 2.84 µM; IC50 at 72 h [6]: 1.31 µM; Activity [7]: inactive; Activity [8]: inactive; Activity (MOLT-4 [9]): 29.84%; Activity (MOLT-4 [10]): 8.03%
COc1ccc(-c2ccc3[nH]c(=O)c4nnn(-c5ccc(N6CCN(C(=O)/C=C/c7ccc(C(F)(F)F)cc7)CC6)c(C(F)(F)F)c5)c4c3c2)cn1 | > 10 | – | –
COc1ccc(-c2ccc3[nH]c(=O)c4nnn(-c5ccc(N6CCN(C(=O)/C=C/C(=O)c7ccccc7OC)CC6)c(C(F)(F)F)c5)c4c3c2)cn1 | 0.79 | 74.1 | –
COc1ccc(-c2ccc3[nH]c(=O)c4nnn(-c5ccc(N6CCN(C(=O)C7=CCCC7)CC6)c(C(F)(F)F)c5)c4c3c2)cn1 | 2.14 | 82.2 | –
COc1ccc(-c2ccc3[nH]c(=O)c4nnn(-c5ccc(N6CCN(C(=O)/C=C/C(=O)c7ccc(Br)cc7)CC6)c(C(F)(F)F)c5)c4c3c2)cn1 | 2.18 | 70.1 | –
COc1ccc(/C=C/C(=O)N2CCN(c3ccc(-n4nnc5c(=O)[nH]c6ccc(-c7ccc(OC)nc7)cc6c54)cc3C(F)(F)F)CC2)cc1 | > 10 | – | –
COc1ccc(-c2ccc3[nH]c(=O)c4nnn(-c5ccc(N6CCN(C(=O)/C=C/C(=O)c7ccc(C)cc7)CC6)c(C(F)(F)F)c5)c4c3c2)cn1 | 1.47 | 72.3 | –
COc1ccc2cc([C@H](C)C(=O)Nc3cc(C)ccn3)ccc2c1 | – | – | pKd [11]: 6.28
COc1ccc(-c2ccc3[nH]c(=O)c4nnn(-c5ccc(N6CCN(C(=O)CCC(=O)c7ccc(F)cc7)CC6)c(C(F)(F)F)c5)c4c3c2)cn1 | > 10 | – | –
COc1ccc(-c2ccc3[nH]c(=O)c4nnn(-c5ccc(N6CCN(C(=O)/C=C/C(=O)c7ccc(OC(F)(F)F)cc7)CC6)c(C(F)(F)F)c5)c4c3c2)cn1 | 1.75 | 84.5 | –
COc1ccc(-c2ccc3[nH]c(=O)c4nnn(-c5ccc(N6CCN(C(=O)/C=C/C(=O)c7ccc(OC(C)C)cc7)CC6)c(C(F)(F)F)c5)c4c3c2)cn1 | 1.07 | 66.1 | –

The remaining compounds from weak to strong by DC50 [1], led by results:

DC50 [1] [µM] | Emax [2] [%] | SMILES | other results
3.8 | 68.1 | COc1ccc(-c2ccc3[nH]c(=O)c4nnn(-c5ccc(N6CCN(C(=O)/C=C/C(=O)c7ccc([N+](=O)[O-])cc7)CC6)c(C(F)(F)F)c5)c4c3c2)cn1 | –
3.65 | 62.8 | COc1ccc(-c2ccc3[nH]c(=O)c4nnn(-c5ccc(N6CCN(C(=O)/C=C/C(=O)c7ccccc7F)CC6)c(C(F)(F)F)c5)c4c3c2)cn1 | –
1.95 | 65 | COc1ccc(-c2ccc3[nH]c(=O)c4nnn(-c5ccc(N6CCN(C(=O)/C=C/C(=O)c7ccc(OC)c(OC)c7)CC6)c(C(F)(F)F)c5)c4c3c2)cn1 | –
1.54 | 75.1 | COc1ccc(-c2ccc3[nH]c(=O)c4nnn(-c5ccc(N6CCN(C(=O)/C=C/C(=O)c7ccc(Cl)cc7)CC6)c(C(F)(F)F)c5)c4c3c2)cn1 | –
1.28 | 70.6 | CCOc1ccc(C(=O)/C=C/C(=O)N2CCN(c3ccc(-n4nnc5c(=O)[nH]c6ccc(-c7ccc(OC)nc7)cc6c54)cc3C(F)(F)F)CC2)cc1 | –
1.18 | 68.9 | COc1ccc(-c2ccc3[nH]c(=O)c4nnn(-c5ccc(N6CCN(C(=O)/C=C/C(=O)c7ccc(OC(F)F)cc7)CC6)c(C(F)(F)F)c5)c4c3c2)cn1 | –
1.1 | 82.2 | COc1ccc(-c2ccc3[nH]c(=O)c4nnn(-c5ccc(N6CCN(C(=O)/C=C/C(=O)c7ccccc7)CC6)c(C(F)(F)F)c5)c4c3c2)cn1 | –
1.05 | 68.4 | COc1cccc(C(=O)/C=C/C(=O)N2CCN(c3ccc(-n4nnc5c(=O)[nH]c6ccc(-c7ccc(OC)nc7)cc6c54)cc3C(F)(F)F)CC2)c1 | –
1.03 | 84.6 | COc1ccc(-c2ccc3[nH]c(=O)c4nnn(-c5ccc(N6CCN(C(=O)/C=C/C(=O)c7ccc(C(F)(F)F)cc7)CC6)c(C(F)(F)F)c5)c4c3c2)cn1 | –
0.98 | 77.3 | COc1ccc(-c2ccc3[nH]c(=O)c4nnn(-c5ccc(N6CCN(C(=O)/C=C/C(=O)c7ccc(F)c(F)c7)CC6)c(C(F)(F)F)c5)c4c3c2)cn1 | –
0.69 | 60.1 | COc1ccc(C(=O)/C=C/C(=O)N2CCN(c3ccc(-n4nnc5c(=O)[nH]c6ccc(-c7ccc(OC)nc7)cc6c54)cc3C(F)(F)F)CC2)cc1 | –
